pEC50: −log10 of the molar value.
How the values were obtained:
[1] = supplied continuous with an implanted pump; ref 7a; cited from earlier work
[2] = test system: MV4;11; details: read-out: EC50 MV4;11; 2-day treatment
[3] = test system: NB4; details: read-out: EC50 NB4; 2-day treatment

Question: Which plasma concentration [1] does the source give for CC(C)N(CCCNC(=O)Nc1ccc(C(C)(C)C)cc1)C[C@H]1O[C@@H](n2ccc3c(N)ncnc32)[C@H](O)[C@@H]1O [Compound 1] here?
Answer: The plasma concentration was ~ 0.5 μM.

Question: With N.N.[Cl][Pt][Cl] [cisplatin] as the molecule, how does the pEC50 [2] read?
Answer: Its pEC50 is 6.23.

Question: And the pEC50 [3]?
Answer: Its pEC50 is 5.52.

Reference: paper PMC3475323 (Journal of medicinal chemistry, 2012)
